Reference: ChEMBL document CHEMBL5352474, “Synthesis and in vitro antileishmanial activity of alkylene-linked nitrofurantoin-triazole hybrids” (Eur J Med Chem, 2023)

Assays:
Leishmania major [1] = assay: Antileishmanial activity against Leishmania major IR-173 promastigotes assessed as inhibition of parasite growth incubated for 48 hrs by resazurin dye based assay; assay type: functional, organism-based; details: IR-173, 48 h
Leishmania donovani [2] = assay: Leishmanicidal activity against Leishmania donovani 9515 amastigote infected in human THP-1 cells incubated for 72 hrs by resazurin dye based analysis; assay type: functional, organism-based; details: Leishmania donovani, 9515, THP-1, 72 h
in vitro [3] = details: African green monkey
[4] = Selectivity index, ratio of IC50 for antileishmanial activity against Leishmania major IR-173 promastigotes to IC50 for leishmanicidal activity against Leishmania major IR-173 amastigote infected in human THP-1 cells; assay type: functional
Leishmania donovani [5] = assay: Antileishmanial activity against Leishmania donovani 9515 promastigotes assessed as inhibition of parasite growth incubated for 48 hrs by resazurin dye based assay; assay type: functional, organism-based; details: Leishmania donovani, 9515, 48 h
in vitro [6] = details: monkey, Vero cells
Description: Selectivity index, ratio of IC50 for cytotoxicity against African green monkey Vero cells to IC50 for antileishmanial activity against Leishmania major IR-173 amastigote infected in human THP-1 cells assessed as static activity

Leishmania major [7] = assay: Leishmanicidal activity against Leishmania major IR-173 amastigote infected in human THP-1 cells incubated for 72 hrs by resazurin dye based analysis; assay type: functional, organism-based; details: IR-173, THP-1, 72 h
Leishmania major [8] = assay: Antileishmanial activity against Leishmania major IR-173 amastigote infected in human THP-1 cells assessed as static activity by measuring inhibition of parasite growth incubated for 72 hrs by resazurin dye based assay; assay type: functional, organism-based; details: IR-173, THP-1, 72 h
in vitro [9] = details: monkey
Description: Selectivity index, ratio of IC50 for cytotoxicity against African green monkey Vero cells to IC50 for leishmanicidal activity against Leishmania donovani 9515 amastigote infected in human THP-1 cells

[10] = Selectivity index, ratio of IC50 for antileishmanial activity against Leishmania major IR-173 promastigotes to IC50 for antileishmanial activity against Leishmania major IR-173 amastigote infected in human THP-1 cells assessed as static activity; assay type: functional
in vitro [11] = details: monkey, Vero cells; remark: listed apart in the source
Description: Selectivity index, ratio of IC50 for cytotoxicity against African green monkey Vero cells to IC50 for antileishmanial activity against Leishmania major IR-173 promastigote

[12] = Selectivity index, ratio of IC50 for cytotoxicity against African green monkey Vero cells to IC50 for leishmanicidal activity against Leishmania major […] amastigote infected in human THP-1 cells; assay type: toxicity, cell-based; details: read-out: Ratio IC50
Leishmania donovani [13] = assay: Antileishmanial activity against Leishmania donovani 9515 amastigote infected in human THP-1 cells assessed as static activity by measuring inhibition of parasite growth incubated for 72 hrs by resazurin dye based assay; assay type: functional, organism-based; details: Leishmania donovani, 9515, THP-1, 72 h
in vitro [14] = details: monkey, Vero cells; remark: listed apart in the source
Description: Selectivity index, ratio of IC50 for cytotoxicity against African green monkey Vero cells to IC50 for antileishmanial activity against Leishmania donovani 9515 promastigotes

in vitro [15] = details: human
[16] = Selectivity index, ratio of IC50 for antileishmanial activity against Leishmania donovani 9515 promastigotes to IC50 for leishmanicidal activity against Leishmania donovani 9515 amastigote infected in human THP-1 cells; assay type: functional
[17] = Selectivity index, ratio of IC50 for antileishmanial activity against Leishmania donovani 9515 promastigotes to IC50 for antileishmanial activity against Leishmania donovani 9515 amastigote infected in human THP-1 cells assessed as static activity; assay type: functional
[18] = Cytotoxicity against HEK293 cells assessed as inhibition of cell growth incubated for 48 hrs by resazurin dye based assay; assay type: toxicity; details: human
[19] = Selectivity index, ratio of IC50 for cytotoxicity against HEK293 cells to IC50 for antileishmanial activity against Leishmania major IR-173 promastigotes; assay type: toxicity, cell-based; details: human, read-out: Ratio IC50
[20] = Selectivity index, ratio of IC50 for cytotoxicity against African green monkey Vero cells to IC50 for antileishmanial activity against Leishmania donovani 9515 amastigote infected in human THP-1 cells assessed as static activity; assay type: toxicity, cell-based; details: read-out: Ratio IC50

IC50 at 48 h (in vitro [3]; Vero cells) [µM]	IC50 at 48 h (in vitro [15]; THP-1 cells) [µM]	SMILES	IC50 (Leishmania major [1]) [µM]	IC50 (Leishmania donovani [2]) [µM]	Ratio IC50 [4]	IC50 (Leishmania donovani [5]) [µM]	selectivity ratio (in vitro [6])	IC50 (Leishmania major [7]) [µM]	IC50 (Leishmania major [8]) [µM]	selectivity ratio (in vitro [9]; Vero cells)	Ratio IC50 [10]	selectivity ratio (in vitro [11])	selectivity ratio [12]	IC50 (Leishmania donovani [13]) [µM]	IC50 at 48 h [18] [µM]	selectivity ratio [19]	also measured
23.2	–	O=Cc1ccc([N+](=O)[O-])o1	7.28	2.68	1.3	> 10	3	5.6	8.35	9	0.87	3	4	8.56	–	–	–
–	> 100	O=C1OCCN1/N=C/c1ccc([N+](=O)[O-])o1 [FURAZOLIDONE]	–	1.68	–	–	17	> 10	5.75	60	0.1	270	–	4.94	–	–	selectivity ratio (in vitro [14]): 357; IC50 at 48 h (in vitro [3]; vero): > 100 µM; Ratio IC50 [16]: 0.2; Ratio IC50 [17]: 0.1
–	–	O=C1CN(/N=C/c2ccc([N+](=O)[O-])o2)C(=O)N1 [NITROFURANTOIN]	> 10	3.57	–	> 10	–	> 10	> 10	–	–	–	–	> 10	–	–	IC50 at 48 h (in vitro [3]; vero): > 100 µM; IC50 at 48 h (in vitro [15]; thp-1): > 100 µM; selectivity ratio (in vitro [9]): 28
31.6	> 100	CCCCc1cn(CCCCCN2C(=O)CN(/N=C/c3ccc([N+](=O)[O-])o3)C2=O)nn1	0.44	1.68	0.1	> 10	–	5.69	> 10	19	–	–	6	> 10	> 100	> 227	–
> 100	> 100	COc1ccc(-c2cn(CCCN3C(=O)CN(/N=C/c4ccc([N+](=O)[O-])o4)C3=O)nn2)cc1	0.8	> 10	0.1	> 10	–	9.75	> 10	–	–	–	> 10	> 10	10.8	13	–
> 100	> 100	NC(=O)N/N=C/c1ccc([N+](=O)[O-])o1 [NITROFURAZONE]	–	2.7	0.1	–	36	5.6	2.8	37	0.12	54	–	4.11	–	–	selectivity ratio (in vitro [14]): 54; Ratio IC50 [16]: 0.3; Ratio IC50 [17]: 0.2
3.86	6.65	O=C1CN(/N=C/c2ccc([N+](=O)[O-])o2)C(=O)N1CCCn1cc(CSc2ccccc2)nn1	0.67	9.9	0.2	> 10	–	3.98	> 10	–	–	–	1	> 10	37.4	56	–
> 100	52.5	CCCCc1cn(CCCN2C(=O)CN(/N=C/c3ccc([N+](=O)[O-])o3)C2=O)nn1	0.45	> 10	–	> 10	30	> 10	3.34	–	0.2	–	–	1.01	43.9	98	selectivity ratio [20]: 99
